The record followed here is US11938189B2, “Compositions and methods for stabilizing protein-containing formulations” (Genentech, Inc., priority 2010, dated 2024).

Holding throughout (type): physicochemical
Series [1] deals with anti-MUC16 monoclonal antibody. Kind of series: Shaking-induced aggregation (150 rpm), percent monomer by size-exclusion chromatography. Particulars: surfactant at one half of its CMC; shaking 150 rpm, 37° C., 64 hours; FIG. 1. The procedure: (§1) In this set of studies, a buffered solution (20 mM sodium phosphate buffer, pH 7.4) of monoclonal antibody was subjected to shaking on an orbital shaker at 150 rpm, at a controlled temperature of 37° C. These studies were carried out using a 3 ml solution fill of the antibody solution in a 6 cc glass vial. Samples were withdrawn at regular intervals and analyzed for percent monomer using size-exclusion chromatography. Various surfactants of the class of alkylglycosides were evaluated for their effectiveness to prevent protein aggregation during shaking. The surfactants were used at concentrations below their respective critical micelle concentration (CMC) or above their respective CMC.
The surfactants were employed at one half the concentration of their respective CMC values, i.e., 1.1 mM (0.035% w/v) n-decyl-β-D-glucopyranoside, 9 mM (0.24%) n-octyl-β-D-glucopyranoside and 0.04 mM (0.0035%) polysorbate 20.
In general terms: SEC sorts molecules by how far they enter the pores of the column.

For series [2], the system named is anti-CD11a monoclonal antibody. Description: Oxidation of Met256 on storage in surfactant-containing antibody solution. Particulars: 0.1% w/v surfactant, FIG. 15. The method, then: In a second experiment, oxidation of the Met256 amino acid residue in an anti-CD11a monoclonal antibody in solutions containing either n-decyl-β-D-glucopyranoside, n-octyl-β-D-glucopyranoside, or polysorbate 20 was evaluated. For this purpose, 3 ml of the buffered antibody solution (pH 6.0) containing 0.1% w/v of the surfactant was stored in 6 cc vials at either 5° C. or 40° C. for a period of either 2 or 4 weeks.

For series [3], the system named is anti-IgE monoclonal antibody. Kind of series: Shaking at 300 rpm, turbidity of antibody formulation. Particulars: 0.23 mM (0.02% w/v) polysorbate 20 or 3.6 mM (0.1% w/v) n-octyl-β-D-glucopyranoside; shaking 300 rpm, 72 hours, 37° C.; FIG. 7. The procedure: as §1
(§2) In FIGS. 6-9, the effect of 0.23 mM (0.02% w/v) polysorbate 20 or 3.6 mM (0.1% w/v) n-octyl-β-D-glucopyranoside on the turbidity of aqueous formulations of an anti-MUC16 monoclonal antibody (FIG. 6), an anti-IgE monoclonal antibody (FIG. 7), an anti-CD11a monoclonal antibody (FIG. 8), and an anti-CD22 monoclonal antibody (FIG. 9), during shaking at 300 rpm for 72 hours at 37° C. was investigated.

Series [4] relates to anti-CD22 monoclonal antibody. The series is described as above. Particulars: 0.23 mM (0.02% w/v) polysorbate 20 or 3.6 mM (0.1% w/v) n-octyl-β-D-glucopyranoside; shaking 300 rpm, 72 hours, 37° C.; FIG. 9. The method, then:
as §1, §2

In series [5] the test system is anti-CD11a monoclonal antibody. The description is as above. Particulars: 0.23 mM (0.02% w/v) polysorbate 20 or 3.6 mM (0.1% w/v) n-octyl-β-D-glucopyranoside; shaking 300 rpm, 72 hours, 37° C.; FIG. 8. The procedure:
as §1, §2

A short description of series [6]: Hydrogen peroxide formation in stored surfactant solutions (Amplex Red Hydrogen Peroxide assay). Particulars: 0.1% w/v surfactant in water, stored at 40° C. for one month; FIG. 14. The method, then: In a first experiment, solutions of surfactants of the class of alkylglycosides, i.e., n-decyl-β-D-glucopyranoside, n-octyl-β-D-glucopyranoside, and n-decyl-β-D-maltopyranoside, as well as polysorbate 20 at a concentration of 0.1% w/v in water were stored at 40° C. for a period of one month. Samples were then withdrawn and analyzed for the presence of hydrogen peroxide using the Amplex Red Hydrogen Peroxide assay. the results of these analyses are shown in FIG. 14.

Series [7] deals with anti-MUC16 monoclonal antibody. Kind of series: Stirring-induced aggregation (500 rpm), turbidity. Particulars: surfactant at one-tenth of its CMC; stirring 500 rpm, ambient temperature, 90 minutes; FIG. 2. The method, then: In this set of studies, a Tefloncoated magnetic stir bar was used to induce agitation in a buffered solution (20 mM histidine-acetate, pH 5.5) of monoclonal antibody. 3 ml of the antibody solution was filled in a 6 cc glass vial and the solution was stirred at 500 rpm using a Teflon-coated stir bar. The solution was stirred for a period of 90 minutes and samples were withdrawn at regular intervals and analyzed for turbidity as an indication of formation of insoluble aggregates. Various surfactants of the class of alkylglycosides were evaluated for their effectiveness to prevent protein aggregation during shaking. The surfactants were used at concentrations below their respective critical micelle concentration (CMC) or above their respective CMC.
FIGS. 2 and 3 show the time-course of turbidity formation in a solution of the anti-MUC16 monoclonal antibody following stirring at 500 rpm using a Teflon-coated magnetic bar at ambient temperature for a period of 90 minutes. Turbidity was evaluated in solutions containing no surfactant as well as in solutions containing different alkylglycoside surfactants or polysorbate 20. […]

In series [8] the test system is Humanized anti-oxidized LDL monoclonal antibody. Kind of series: Light-induced oxidation of tryptophan residues (LC/MS/MS tryptic peptide map). Particulars: Light 24 hrs; 0.02% surfactant. The procedure: MAb samples and light treatment: Humanized anti-oxidized LDL monoclonal antibody, was produced at Genentech, Inc. from a CHO cell line. Three independent samples were prepared for photostability studies: 1) control sample, vial wrapped with aluminum foil; 2) test sample, vial light exposed (unwrapped); 3) test sample, vial light exposed (unwrapped) containing the specified non-ionic surfactant. Both control & light exposed samples were kept in a light box for 24 hrs. Light exposure following ICH guideline with following setting for a Atlas SUNTEST CPS+Light Box: Irradiance level=250 watts/square meter; Time set for 24 hours; Total UV dose=538 watt-hours/square meter; Total visible dose=1,320,000 lux-hours.
LC/MS/MS of tryptic MAb peptide map: Samples were digested with trypsin after reduction and alkylation. The resulting peptides were analyzed with a Thermo LTQ-Orbitrap mass spectrometer coupled with an Agilent 1200 capillary HPLC system. HPLC column: Jupiter 5 um C18 250×1.0 mm, flow rate: 70 uL/min, column oven temperature: 55° C. Solvent A: 0.1% TFA in water, B: 0.09% TFA in 90% ACN. Orbitrap setting: MS resolution 60000, MS/MS collected in data dependent mode, using LTQ.
The effect of light, and the protective effect of non-ionic surfactants, on the oxidation of tryptophan residues on an anti-oxidized LDL antibody was determined.

In series [9] the test system is anti-MUC16 monoclonal antibody. Description: Shaking at 300 rpm, turbidity of antibody formulation. Particulars: 0.23 mM (0.02% w/v) polysorbate 20 or 3.6 mM (0.1% w/v) n-octyl-β-D-glucopyranoside; shaking 300 rpm, 72 hours, 37° C.; FIG. 6. The procedure: as §1
In FIG. 4, the effect of varying the concentration of n-octyl-β-D-glucopyranoside on the turbidity of anti-MUC16 monoclonal antibody formulations during shaking at 300 rpm for 72 hours at 37° C. was investigated.
as §2

For “polyoxyethylene sorbitan monolaurate [polysorbate 20, reference compound]”, in series [1], the “prevention of shaking-induced loss of percent monomer” value is “not effective in preventing shaking-induced loss of monomer”. Besides, the “percent of Met256 residues oxidized” value is “approximately 16%” in [2] (pH 6.0, storage at 40° C. for 4 weeks) and “approximately 2%” in series [2] (pH 6.0, time zero). Further, the “inhibition of visible antibody aggregates measured by turbidity formation” value in series [3], in series [4], in [5] and in series [9] was “effectively inhibited the formation of visible antibody aggregates” each time. The “hydrogen peroxide formed in surfactant solution” value in series [6] is given as “about 10 μM”. Besides, the “prevention of turbidity development on stirring” value in series [7] was “effective in preventing turbidity development”. The “% Oxidized Trp33” value in [8] turned out to be 0.6%. In series [8], the “% Oxidized Trp92” value was 8.9%.
